From patent US20160030416A1, “METHODS OF TREATING B2-BRADYKININ RECEPTOR MEDIATED ANGIOEDEMA” (SHIRE HUMAN GENETIC THERAPIES, INC., priority 2013, published 2016)
Read-outs that look alike come from different tables or passages of the source.

Experiments:
[1] = Plasma kinetics, intravenous, CD-1 mice; assay type: in vivo, female CD-1 mice
Description: CFMQ (HGT3711) was administered to fasted female CD-1 mice by a single intravenous injection at 1.0 mg/kg, formulated in 100% PEG200. Blood samples were taken via cardiac puncture prior to administration and at 0.083 (5 min), 0.25 (15 min), 0.50 (30 min), 1, 2, 4, and 8 hours post dose. Plasma concentrations of CFMQ (HGT3711) were determined by LC-MS/MS and concentrations below the limit of quantitation (BLOQ=<1 ng/ml) were assigned a value of zero for pharmacokinetic analysis. Nominal dosing concentrations were used in all calculations.

[2] = biological target: T1, human B2-bradykinin receptor (Homo sapiens, UniProt P30411); experiment: Calcium mobilization assay in human fibroblast (HF15) cells; assay type: cell-based; set-up: endogenous in cells; host or cells: HF15 human fibroblasts; details: 25 minutes pre-incubation at 25° C., read-out: IC50, inhibition of bradykinin-induced calcium mobilization
T1 sequence (P30411 1-391): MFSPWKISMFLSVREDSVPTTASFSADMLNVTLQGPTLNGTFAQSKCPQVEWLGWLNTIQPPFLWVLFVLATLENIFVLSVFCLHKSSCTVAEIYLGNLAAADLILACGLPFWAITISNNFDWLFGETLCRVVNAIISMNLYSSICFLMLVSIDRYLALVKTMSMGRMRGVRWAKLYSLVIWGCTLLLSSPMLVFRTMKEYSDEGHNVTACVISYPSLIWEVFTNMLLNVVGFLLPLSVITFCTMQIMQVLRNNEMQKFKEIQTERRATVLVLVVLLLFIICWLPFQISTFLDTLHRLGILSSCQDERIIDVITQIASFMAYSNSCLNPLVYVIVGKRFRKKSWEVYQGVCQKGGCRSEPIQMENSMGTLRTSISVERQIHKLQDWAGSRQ
Description: CFMQ was formulated as a 5 nM stock solution in 100% DMSO and serially diluted to 0.04, 0.12, 0.37, 1.11, 3.33, 10 and 30 nM. Human fibroblast (HF15) cells, which express the human B2R were loaded with 100 μL calcium dye solution containing 2.5 mM probenicide and were then pre-incubated with CFMQ for 25 minutes at 25° C. The inhibition effect of CFMQ on bradykinin-mediated calcium mobilization was tested in this system by emission of fluorescence signals, using the height of the resulting peak over the baseline value (relative fluorescence units [RFU] max-min). The percent inhibition for each concentration was used for curve fit and IC50 calculation.

[3] = In vitro microsomal stability, human; assay type: in vitro ADME; details: Mix
Description: (§1) In vitro metabolic stability studies were performed to determine hepatic stability in vivo. CFMQ was incubated in liver microsomal preparations from mouse, rat, dog, mini-pig, and humans, as well as an additional study with monkey and human. CFMQ was incubated with human and animal liver microsomes at 0.3 mg/mL at 37° C. for 30 or 60 minutes. Additional reference compounds were incubated as controls. Following incubation, samples were analyzed by HPLC-MS/MS.

plasma extravasation = experiment: Plasma extravasation (Evans blue in bladder), oral, C1-INH knockout mice; assay type: in vivo, C1-INH-KO mice
[4] = Pharmacokinetics, single oral gavage, CD-1 mice; assay type: in vivo, female CD-1 mice; details: female, CD-1, mouse, plasma
Description: CFMQ (HGT3711) was administered to fasted female CD-1 mice (n=18/dose group) by a single oral gavage at 100, 250 and 450 mg/kg in a dose volume of 5 mL/kg in a spray-dried dispersion formulation (discussed below). Blood samples were taken via cardiocentesis or abdominal vein prior to administration and at 10, 30, 60 (1 hr), 120 (2 hr), 240 (4 hr) and 480 (8 hr) minutes post dose. Plasma concentrations of CFMQ (HGT3711) were determined by LC-MS/MS (liquid chromatography mass spectrometry) and concentrations below the limit of quantitation (3 ng/mL) were assigned a value of zero for pharmacokinetic analysis. Nominal dosing concentrations were used in all calculations.

[5] = In vitro microsomal stability, mini-pig; assay type: in vitro ADME; details: Mini-Pig (Gotting), Male
Description: as §1

[6] = biological target: T2, μ (h) (MOP) (agonist site) (Homo sapiens, UniProt P35372); experiment: Off-target receptor binding: μ (MOP)
T2 construct: expressed in transfected cells; host or cells: CHO or HEK 293 (not assigned per receptor)
T2 sequence (P35372 whole entry): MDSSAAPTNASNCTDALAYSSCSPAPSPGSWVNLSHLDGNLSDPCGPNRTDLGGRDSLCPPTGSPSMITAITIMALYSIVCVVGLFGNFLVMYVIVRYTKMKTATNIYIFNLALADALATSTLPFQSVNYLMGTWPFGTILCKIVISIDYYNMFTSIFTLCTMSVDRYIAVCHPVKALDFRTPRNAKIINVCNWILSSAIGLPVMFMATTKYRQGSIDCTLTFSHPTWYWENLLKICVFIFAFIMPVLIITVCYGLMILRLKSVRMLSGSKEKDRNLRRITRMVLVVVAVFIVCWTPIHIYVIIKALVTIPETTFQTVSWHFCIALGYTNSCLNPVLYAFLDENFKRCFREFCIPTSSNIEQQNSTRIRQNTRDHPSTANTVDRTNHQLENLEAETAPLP
Description: To determine the affinity to the B2-bradykinin receptor, CFMQ was compared to a diverse set of receptors and reference agents in an in vitro assay using cells from rat heart, urinary bladder, cerebral cortex, as well as human recombinant cells (CHO and HEK 293) and other cell lines. Each assay included a ligand at a specific concentration (concentration ranging from 0.007-10 nM), in addition to a non-specific ligand (concentration ranging from […]) for incubation periods ranging from 15 minutes to 6 hours at 4°-37° C. The specific binding to the receptors was defined as the difference between the total binding and the nonspecific binding, determined in the presence of an excess of unlabeled CFMQ. The concentration causing a half-maximal inhibition of control specific binding (IC50 values) and inhibition constants (Ki) were determined, and each reference compound was within the accepted limits of the historic average (±0.5 log units).

[7] = female, CD-1, mouse, plasma, IV 1 mg/kg
[8] = female, CD-1, mouse, plasma, IV 1 mg/kg, extrapolated to t = 0
[9] = 100 mg/kg, read-out: Average Concentration of HGT3711
[10] = 250 mg/kg, read-out: Average Concentration of HGT3711
[11] = 450 mg/kg, read-out: Average Concentration of HGT3711
[12] = 450 mg/kg, n = 2, read-out: Average Concentration of HGT3711

## Cc1cc(Cl)c(COc2cccc3c(-n4cc(F)cn4)cc(C)nc23)c(Cn2cccc(C#N)c2=O)n1 [CFMQ, 1-((4-Chloro-3-(((4-(4-fluoro-1H-pyrazol-1-yl)-2-methylquinolin-8-yl)oxy)methyl)-6-methylpyridin-2-yl)methyl)-2-oxo-1,2-dihydropyridine-3-carbonitrile]
[1]; IV 1 mg/kg, by 4 hours post-dose, BLOQ=<1 ng/ml
  plasma concentration: below the BLOQ
[1]; IV 1.0 mg/kg, mice
  adverse reactions: No adverse reactions were observed
[1]; [7]
  AUC(0-inf): 70.9 ng·h/mL
  clearance: 235 mL/min/kg
  half-life: 33.6 min
[1]; female, CD-1, mouse, plasma, IV 1 mg/kg, 0.083 hr, read-out: Average Concentration of HGT3711
  concentration at 0.083 hr: 162 ng/mL
[1]; female, CD-1, mouse, plasma, IV 1 mg/kg, 0.25 hr, read-out: Average Concentration of HGT3711
  concentration at 0.25 hr: 92.9 ng/mL
[1]; female, CD-1, mouse, plasma, IV 1 mg/kg, 0.50 hr, read-out: Average Concentration of HGT3711
  concentration at 0.5 hr: 22.4 ng/mL
[1]; female, CD-1, mouse, plasma, IV 1 mg/kg, 1.0 hr, read-out: Average Concentration of HGT3711
  concentration at 1 hr: 12.6 ng/mL
[1]; female, CD-1, mouse, plasma, IV 1 mg/kg, 2.0 hr, read-out: Average Concentration of HGT3711
  concentration at 2 hr: 3.48 ng/mL
[1]; [8]
  C0: 214 ng/mL
  Tmax: 0 h
[1]; female, CD-1, mouse, plasma, IV 1 mg/kg, read-out: AUClast ± SE
  AUC(0-t): 68.1 ng·h/mL
[1]; female, CD-1, mouse, plasma, IV 1 mg/kg, read-out: Vss
  Vd: 6.3 L/kg
[2]
  IC50: 2.97 nM
[3]; 30 minutes
  % Remaining [30 minutes]: 70-91%
[3]; 60 minutes
  % Remaining [60 minutes]: 50-85%
Plasma extravasation; oral 3.0 mg/kg
  efficacy compared with 0.4 mg/kg SC Firazyr: nearly as effective
Plasma extravasation; oral 10 mg/kg
  inhibition of EB accumulation in the bladder: ~100%
Plasma extravasation; oral 30 mg/kg
  inhibition of EB accumulation in the bladder: ~100%
[4]; 100 mg/kg
  AUC(0-inf): 10500 ng·h/mL
  AUC(0-t): 10500 ng·h/mL
  Cmax: 5300 ng/mL
[4]; [9]
  concentration at 10 min: 5300 ng/mL
  concentration at 30 min: 4100 ng/mL
  concentration at 60 min: 5170 ng/mL
  concentration at 120 min: 2200 ng/mL
  concentration at 240 min: 78 ng/mL
  concentration at 480 min: 18 ng/mL
[4]; 250 mg/kg
  AUC(0-inf): 24500 ng·h/mL
  AUC(0-t): 24400 ng·h/mL
  Cmax: 13300 ng/mL
[4]; [10]
  concentration at 10 min: 6250 ng/mL
  concentration at 30 min: 13300 ng/mL
  concentration at 60 min: 10400 ng/mL
  concentration at 120 min: 4570 ng/mL
  concentration at 240 min: 854 ng/mL
  concentration at 480 min: 45 ng/mL
[4]; 450 mg/kg
  AUC(0-inf): 40900 ng·h/mL
  AUC(0-t): 40800 ng·h/mL
  Cmax: 15800 ng/mL
[4]; [11]
  concentration at 10 min: 11600 ng/mL
  concentration at 30 min: 14600 ng/mL
  concentration at 240 min: 3370 ng/mL
  concentration at 480 min: 88 ng/mL
[4]; [12]
  concentration at 60 min: 15800 ng/mL
  concentration at 120 min: 6440 ng/mL
[5]; 30 minutes
  % Remaining [30 minutes]: 74%
[5]; 60 minutes
  % Remaining [60 minutes]: 58%
[6]
  IC50: 6700 nM
  Ki: 2700 nM
  nH: 1.0
[6]; CFMQ at 10 μM
  inhibition at 10 µM: 54%
